Laboratory results: the NIST ThermoML archive (doi:10.1021/je800266e)
± gives the expanded uncertainty stated by the source.

Assays:
[1] = for Triple point temperature: Adiabatic calorimetry; for Normal melting temperature: DTA
[2] = Molar enthalpy of transition or fusion
[3] = molar heat capacity at constant pressure; details: 101.33 kPa, Small (less than 1 g) adiabatic calorimetry

CCC(=O)[c-]1cccc1.[Fe+2].c1cc[cH-]c1 [propanoylferrocene]
[1], Crystal
Details | Normal melting temperature [°C] | Triple point temperature [K]
– | 5.1 ± 2 | 276.83 ± 1

Details | Molar enthalpy of transition or fusion [kJ/mol] | molar heat capacity at constant pressure [J/K/mol]
[2], Crystal, Adiabatic calorimetry | 12.7 ± 0.34 | –
[2], Crystal, DSC | 14.7 ± 1 | –
[3], 10 K, Crystal | – | 4.607 ± 0.097
[3], 15 K, Crystal | – | 11.25 ± 0.18
[3], 20 K, Crystal | – | 18.61 ± 0.25
[3], 25 K, Crystal | – | 26.27 ± 0.28
[3], 30 K, Crystal | – | 34.16 ± 0.27
[3], 35 K, Crystal | – | 42.07 ± 0.31
[3], 40 K, Crystal | – | 49.63 ± 0.35
[3], 45 K, Crystal | – | 56.35 ± 0.38
[3], 50 K, Crystal | – | 61.76 ± 0.41
[3], 55 K, Crystal | – | 66.08 ± 0.43
[3], 60 K, Crystal | – | 70.11 ± 0.45
[3], 65 K, Crystal | – | 74.36 ± 0.47
[3], 70 K, Crystal | – | 79.11 ± 0.5
[3], 75 K, Crystal | – | 84.35 ± 0.52
[3], 80 K, Crystal | – | 89.8 ± 0.55
[3], 90 K, Crystal | – | 99.79 ± 0.6
[3], 100 K, Crystal | – | 108.7 ± 0.6
[3], 110 K, Crystal | – | 116.7 ± 0.7
[3], 120 K, Crystal | – | 124.2 ± 0.7
[3], 130 K, Crystal | – | 131.6 ± 0.7
[3], 140 K, Crystal | – | 138.9 ± 0.8
[3], 150 K, Crystal | – | 146.4 ± 0.8
[3], 160 K, Crystal | – | 154 ± 0.8
[3], 170 K, Crystal | – | 161.9 ± 0.8
[3], 180 K, Crystal | – | 170 ± 0.9
[3], 190 K, Crystal | – | 178.3 ± 0.9
[3], 200 K, Crystal | – | 186.8 ± 0.9
[3], 210 K, Crystal | – | 195.4 ± 1
[3], 220 K, Crystal | – | 204.1 ± 1
[3], 230 K, Crystal | – | 212.9 ± 1.1
[3], 240 K, Crystal | – | 221.9 ± 1.1
[3], 250 K, Crystal | – | 231 ± 1.1
[3], 260 K, Crystal | – | 240.3 ± 1.2
[3], 270 K, Crystal | – | 250.1 ± 1.2
[3], 280 K, Crystal | – | 260.5 ± 1.2
[3], 290 K, Crystal | – | 271.7 ± 1.3
[3], 298.15 K, Crystal | – | 280.7 ± 1.3
[3], 300 K, Crystal | – | 282.7 ± 1.3
[3], 310 K, Crystal | – | 293.8 ± 1.4
[3], 311.13 K, Crystal | – | 295 ± 1.4
[3], 311.13 K, Liquid | – | 347.6 ± 1.6
[3], 320 K, Liquid | – | 353.3 ± 1.6
[3], 330 K, Liquid | – | 359.7 ± 1.6
[3], 340 K, Liquid | – | 365.7 ± 1.7
[3], 350 K, Liquid | – | 372.9 ± 1.7
[3], 360 K, Liquid | – | 378.5 ± 1.7
[3], 370 K, Liquid | – | 381.9 ± 1.7

CCC[c-]1cccc1.[Fe+2].c1cc[cH-]c1 [propylferrocene]
Details | Molar enthalpy of transition or fusion, Crystal 1, Adiabatic calorimetry [kJ/mol] | Molar enthalpy of transition or fusion, Crystal 1, DSC [kJ/mol] | Molar enthalpy of transition or fusion, Crystal 2, Adiabatic calorimetry [kJ/mol] | Normal melting temperature, Crystal 1 [°C] | Triple point temperature, Crystal 1 [K] | Triple point temperature, Crystal 2 [K]
[1] | – | – | – | 38.47 ± 2 | 311.62 ± 1 | 186.7 ± 0.6
[2] | 19.2 ± 0.24 | 19.7 ± 1 | 1.23 ± 0.04 | – | – | –

[3]
Details | molar heat capacity at constant pressure [J/K/mol]
5 K, Crystal 2 | 0.5339 ± 0.032
10 K, Crystal 2 | 3.806 ± 0.084
15 K, Crystal 2 | 11.48 ± 0.18
20 K, Crystal 2 | 20.55 ± 0.27
25 K, Crystal 2 | 29.5 ± 0.32
30 K, Crystal 2 | 37.6 ± 0.29
35 K, Crystal 2 | 44.82 ± 0.33
40 K, Crystal 2 | 51.46 ± 0.36
45 K, Crystal 2 | 57.41 ± 0.39
50 K, Crystal 2 | 62.94 ± 0.42
55 K, Crystal 2 | 68.11 ± 0.44
60 K, Crystal 2 | 72.96 ± 0.47
65 K, Crystal 2 | 77.55 ± 0.49
70 K, Crystal 2 | 81.91 ± 0.51
75 K, Crystal 2 | 86.11 ± 0.53
80 K, Crystal 2 | 89.89 ± 0.55
90 K, Crystal 2 | 98.25 ± 0.59
100 K, Crystal 2 | 106.2 ± 0.6
110 K, Crystal 2 | 114.1 ± 0.7
120 K, Crystal 2 | 122 ± 0.7
130 K, Crystal 2 | 130.2 ± 0.7
140 K, Crystal 2 | 139.3 ± 0.8
150 K, Crystal 2 | 149.6 ± 0.8
160 K, Crystal 2 | 161.7 ± 0.8
170 K, Crystal 2 | 173.8 ± 0.9
180 K, Crystal 2 | 185.9 ± 0.9
186.7 K, Crystal 1 | 191.3 ± 1
186.7 K, Crystal 2 | 194 ± 1
190 K, Crystal 1 | 193.3 ± 1
200 K, Crystal 1 | 199.5 ± 1
210 K, Crystal 1 | 205.6 ± 1
220 K, Crystal 1 | 212.1 ± 1
230 K, Crystal 1 | 220.2 ± 1.1
240 K, Crystal 1 | 230.2 ± 1.1
250 K, Crystal 1 | 244.6 ± 1.2
260 K, Crystal 1 | 274.7 ± 1.3
270 K, Crystal 1 | 324 ± 1.5
276.03 K, Crystal 1 | 286.8 ± 1.4
276.03 K, Liquid | 305.9 ± 1.4
280 K, Liquid | 308.4 ± 1.4
290 K, Liquid | 314.9 ± 1.5
298.15 K, Liquid | 319.5 ± 1.5
300 K, Liquid | 320.5 ± 1.5
310 K, Liquid | 325.8 ± 1.5
320 K, Liquid | 331.8 ± 1.5
330 K, Liquid | 338.2 ± 1.6
340 K, Liquid | 344.4 ± 1.6
350 K, Liquid | 350.7 ± 1.6
360 K, Liquid | 356.6 ± 1.6
370 K, Liquid | 361.5 ± 1.6
